# From publication PMC5794198, “Inhibitors of Trypanosoma cruzi Sir2 related protein 1 as potential drugs against Chagas disease” (PLoS Neglected Tropical Diseases, 2018)
# “Also recorded” adds a separate entry of the source.
# What was measured:
# [1] = C2C12 host cell cytotoxicity (cell ratio) in HCS assay; type: cell-based, Mouse; details: mouse, cell ratio, 72 h; read-out: C2C12 Cytotoxicity (CC50 ± SD)
# Protocol: (§1) For the evaluation of the activity against T. cruzi amastigotes, high-content screening (HCS) was designed. In summary, 100 μL of host C2C12 cells (ATCC) were seeded in clear bottom black 96-well plates at a density of 2.5 x 10^4 cells/mL (2.5 × 10^3 cells/well). […] The parasites were allowed to infect for a 24 hr period, after which compounds were added in a volume of 50 μL. […] After 72 hrs of compound incubation, the wells were fixed with 4% paraformaldehyde for 15 to 30 mins. The plates were then washed once with deionized water and stained with a solution of DAPI (3 μM) for 1 hour. Plates were imaged in an INCell 2000 (GE Healthcare) high-content analyser by taking 16 pictures per well at 20 X objective amplification. Images were analysed with INCell Developer software (GE Healthcare) using the segmentation of host cell nuclei and parasite kinetoplast DNA. The measurement output used was the average number of parasites per cell calculated by the ratio of host cell nuclei/parasite kinetoplast DNA.
# [2] = test system: C2C12 cells; experiment: as above; type: cell-based, Mouse; details: CC50 cell line (C2C12)/EC50 T. cruzi
# Protocol: as §1
# [3] = Gastric stability; type: in vitro ADME
# [4] = MTT cytotoxicity on hepatocytes; type: cell-based; details: hepatocytes, CC50 cell line / EC50 T. cruzi; read-out: Selectivity Index, hepatocytes
# Protocol: (§2) To evaluate toxicity towards mammalian cell lines (hepatocytes (Seralab), neurons and MDCK cells (ATCC); a renal cell line from dogs), all the compounds were assayed with MTT [66]. Additionally, for cardiotoxicity evaluation, where toxic effects in cardiomyocytes could be affecting their function before being lethal, a hERG assay was performed according to the manufacturer’s protocol Predictor hERG Fluorescence Polarization Assay (Invitrogen). Briefly, inhibition of hERG channel was analysed by competition of BNIPSpd and a high-affinity red fluorescent hERG channel ligand. BNIPSpd (9) was mixed with the ligand and membranes containing hERG channel, incubated for 2 hrs at RT and the fluorescence polarization was measured using 530 / 590 nm ex/em filters using the Synergy 2 plate reader (Biotek).
# [5] = test system: Hepatocytes; experiment: MTT cytotoxicity on hepatocytes; type: cell-based; details: MTT
# Protocol: as §2
# [6] = test system: T. cruzi amastigotes; experiment: High-content screening assay on intracellular T. cruzi amastigotes; type: cell-based, Trypanosoma cruzi; details: Trypanosoma cruzi, C2C12, 72 h, Y strain in C2C12 host cells, 72 h; read-out: Anti-T. cruzi Activity Amastigotes (EC50 ± SD)
# Outline: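 C2C12 host cells were infected 24 hr with Y strain tissue culture-derived trypomastigotes, then exposed to compound for 72 hrs. After paraformaldehyde fixation and DAPI staining, high-content imaging segmented host nuclei and parasite kinetoplast DNA. Read-out was the average number of amastigotes per host cell.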
# [7] = Snapshot pharmacokinetics in blood after intravenous injection; type: in vivo, BALB/c mice; details: 5 mg/kg intravenous
# Protocol: The pharmacokinetic profile of BNIPSpd was determined following intravenous injection of 5 mg/kg in BALB/c mice. The blood was collected from tail veins after 0, 5, 15, 30, 45 min, 1, 3, 24, 48 and 72 h of drug administration. Blood concentrations of the drug were analysed by UHPLC- ESI-MS/MS.
# Supplementary file pntd.0006180.s006.tif: S5 Fig In vivo efficacy testing of BNIPSpd (9). A) Mice were infected with 10^4 Luc^+ trypomastigotes by intraperitoneal injection. Treatments (BZN, benznidazole at 100 mg/kg/day per os, and BNIPSpd (9) at 5 mg/kg/day by intravenous injection) were initiated 7 days after infection, as well as the respective controls (KP, Kolliphor HS 15 20% per os and DMSO 10% by intravenous injection). […] In the lower panel, bioluminescence signal of whole mice represented in average radiance (photons/sec/cm^2/sr) quantified before and after treatment. […] B) Snapshot Pharmacokinetics of BNIPSpd (9) in BALB/c mice by quantification of BNIPSpd (9) in the blood of mice by UHPLC-MS/MS ESI+ at different time-points after administration of a 5 mg/kg dose by intravenous injection. […] The dashed line represents the value of EC50 for BNIPSpd (9) in the in vitro assay against T. cruzi amastigotes, and the dotted line represents the lower limit of quantification of the technique. […]
# [8] = test system: T. cruzi Y strain (Luc+); experiment: Mouse model of T. cruzi infection, bioluminescence imaging; type: in vivo, BALB/c mice; details: 5 mg/kg/day intravenously for 4 consecutive days from day 7 of infection; listed as BNIPSpd (9)
# Protocol: To evaluate BNIPSpd (9) efficacy in vivo, five- to six-week-old female BALB/c mice (Charles River) and infected with T. cruzi trypomastigotes expressing luciferase. Parasites were collected from the supernatants of a monolayer of Vero infected cells, washed and suspended in PBS-glucose 0.2%, and injected intraperitoneally (1 x 10^4 per mouse). After 7 days of infection, mice were treated with drugs for 4 consecutive days orally with (benznidazole in 20% Kolliphor HS 15) or intravenously with (BNIPSpd (9) in 10% DMSO) at a dose of 100 or 5 mg/kg/day, respectively. Infection and treatment efficiency were evaluated following subcutaneous injection of 2.1 mg of luciferin and through live imaging using an IVIS Lumina LT (Perkin Elmer). Images of the animals were analysed using the Living Image software (Perkin Elmer).
# Supplementary file pntd.0006180.s006.tif: S5 Fig In vivo efficacy testing of BNIPSpd (9). A) Mice were infected with 10^4 Luc^+ trypomastigotes by intraperitoneal injection. […] In the lower panel, bioluminescence signal of whole mice represented in average radiance (photons/sec/cm^2/sr) quantified before and after treatment. […] B) Snapshot Pharmacokinetics of BNIPSpd (9) in BALB/c mice by quantification of BNIPSpd (9) in the blood of mice by UHPLC-MS/MS ESI+ at different time-points after administration of a 5 mg/kg dose by intravenous injection. […]
smiles,measurement,setting,value
"O=C1c2cccc3cccc(c23)C(=O)N1CCCNCCCCNCCCNCCCN1C(=O)c2cccc3cccc(c23)C1=O [Compound 9, BNIP Spermidine]",CC50 at 72 h,[1],24.5 ± 0.45 µM
same,Selectivity Index,[2],8.8
same,Gastric stability,[3],100%
same,selectivity ratio,[4],~1
same,Hepatotoxicity (Hepatocytes) cytotoxicity,[5],≥ 3.1 µM
same,EC50,[6],2.84 ± 0.18 µM
same,Highest plasma concentration detected,[7]; at the 5 min time-point,1.70 µM
same,Blood level after the 3 h time-point,"[7]; 3 h up to 72 h, lower limit of quantification 8.1 nM, listed as BNIPSpd (9)",below the level of detection; also recorded: no longer detected
same,In vivo activity (bioluminescence signal vs vehicle),[8],did not exhibit any in vivo activity; also recorded: lack of in vivo activity
